What was measured:
[1] = test system: Cloudman S-91 mouse melanoma cells (sub-clone M-3); experiment: Annexin V-FITC/propidium iodide apoptosis assay in melanoma cells; assay type: cell-based
Procedure: (§1) Cloudman S-91 mouse melanoma cells (sub-clone M-3, CCL 53.1; American Type Culture Collection, Rockville, Md.) were grown in RMPI medium supplemented with 10% fetal bovine serum (Invitrogen, Inc) and 5% penicillin-streptomycin (Invitrogen, Inc). Mouse breast cancer cells (66Cl-1; American Type Culture Collection, Rockville, Md.) that are estrogen-receptor negative were grown in DMEM medium supplemented with 10% fetal bovine serum (Invitrogen, Inc) and 5% penicillin/streptomycin (Invitrogen, Inc). Human T-cell leukemic lymphocytes (CEM; American Type Culture Collection, Rockville, Md.) were grown in MEM medium supplemented with 7% fetal calf serum. Cultures were passaged twice a week.
Early and late apoptosis was assessed with the Annexin V-FITC Apoptosis Detection Kit from PharMingen (Becton-Dickinson, San Diego, Calif.). Images were obtained at the Center for Cell Analysis and Modeling, University of Connecticut Health Center, Farmington, Conn., with an Axioplan CCD Microscope equipped with a 40×1.3 NA FL objective lens and Photometrics PXL-EEV37 high speed digital cooled CCD camera via Metamorph image acquisition and analysis software (Universal Imaging Corp., Downington, Pa.).
M3 Cloudman melanoma cells were plated into culture dishes containing RPMI medium. After 24 hour media was changed to control medium (no drug) or to media containing different concentrations of methyl sulfone (1-10% methyl sulfone in RPMI medium). Cells were examined by live cell video microscopy immediately after adding drug and every 24 hours up to 144 hours.
Briefly, melanoma cells (Cloudman M3 cell line) were plated at 10^5 cells/ml in RPMI medium. After 24 hours, medium was replaced with RPMI containing different concentrations (grams/volume) of MMS, MES and EES. After 24 hours, apoptosis was assayed using the Becton-Dickinson Annexin V-FITC/Propidium Iodide Kit and a Nikon fluorescent microscope as described by the manufacturer.

[2] = test system: melanoma cells; experiment: Soft agar assay for colony formation; assay type: cell-based, mouse; conditions: 2% methyl sulfone; control hundreds of colonies
Procedure: Cells were plated on 8-35 mm plates that contained base agar with and without 2% methyl sulfone. To make base agar, 1% agar (DNA grade; Difco Bacto Agar; Becton Dickenson and Company, Sparks, Md.), was mixed in water at room temperature, melted in a microwave, and cooled to 40° C. before using. For drug plates, 1% agar was combined (1:1) with 4% methyl sulfone in 2×RPMI medium with sodium bicarbonate supplemented with 10% FBS and 5% penicillin/streptomycin. For control plates, 1% agar was combined (1:1) with 2×RMPI medium. Agar +/−2% methyl sulfone was added to appropriate 35 mm tissue culture plates and stored overnight at 4° C. The next day top agar and cells were placed on top of the base agar. Top agar was made with 0.66% agar in water. The agar was melted in a microwave, cooled, and stored at 40° C. 2×RPMI medium and 4% methyl sulfone was also stored at 40° C. Cells were trypsinized and counted for a final concentration of 5×10^3 cells/plate. Cell counts were adjusted to 2×10^5 cells/ml and 0.05 ml of the cell suspension was added to 15 ml centrifuge tubes (2 each). Base agar plates were removed from 4° C. and allowed to warm to room temperature for approximately 30 minutes prior to plating. […] Colonies were photographed and counted with a dissecting microscope. […]

[3] = test system: actin filaments in melanoma cells; experiment: Immunofluorescence of actin filaments; assay type: cell-based, mouse; conditions: 2% methyl sulfone, 72 hours
Procedure: Cells were plated onto 10-well slides ( ) that were pre-treated with sulfuric acid. After 24 hours, medium was removed and 2% methyl sulfone in medium was added to half the slides; control cells received medium alone. At 72 and 144 hours, cells were washed in 37° C. PBS, pH 7.4, and fixed in 3.7% formaldehyde in PBS for 10 minutes. PBS was used to wash cells three times followed by a wash in 0.1% Triton X-100/PBS for 5 minutes. Cells were again washed three times in PBS, then in 1% BSA/PBS for 20 minutes. Cells were incubated with Rhodamine-labeled Phalloidin (Molecular Probes, Eugene, Oreg.; diluted 1/40 in 1% BSA/PBS) for 20 minutes. After washing three times in PBS, SlowFade was added to each well. Glass coverslips were placed over each slide and sealed with nail polish. Images were visualized using 568-nm excitation on a Perkin Elmer Ultraview RS5 spinning-disk confocal scanning system mounted on a Nikon TE2000 inverted microscope with a 100×1.4 NA Plan Apo oil immersion objective. (William A. Mohler, Ph.D., Director, Spinning Disk Microscope Facility, University of Connecticut Health Center).

[4] = test system: CEM cells, leukemic T-cell lymphocytes; experiment: Apoptosis of leukemic lymphocytes, FITC-annexinV/propidium iodide microscopy; assay type: cell-based, human; conditions: for apoptotic leukemic lymphocytes: 20 hours
Procedure: as §1
CEM cells, leukemic T-cell lymphocytes obtained from a child with acute lymphocytic leukemia, were maintained in Petri dishes in MEM (minimal essential medium) with 7% fetal calf serum in a 5% CO2 incubator at 37° C. For experiments, methyl sulfone was added to the medium at concentrations from 0-6.0%. In control cells, no methyl sulfone was added. Cells (2×10^6 per ml) were incubated for 20 hrs in the presence or absence of methyl sulfone, and then assayed for apoptosis using FITC-annexinV/propidium iodide microscopy. Methyl sulfone was also compared to the anti-microtubule drug, vinblastine. Vinblastine (VNB) and its derivative, vincristine, are standard treatments for acute lymphocytic leukemia, as well as other cancers. We used the concentration of VNB that is found in the blood of subjects being treated with this drug (10^−7 M) (6,7).

[5] = test system: neutrophils from healthy volunteers; experiment: Apoptosis of normal neutrophils by Flow Cytometry; assay type: cell-based, human; conditions: 10% methyl sulfone, 20 hours
Procedure: Blood was drawn from healthy volunteers and white blood cells (e.g., lymphocytes, neutrophils) were enriched using Ficoll-Plaque. Cells were incubated in Petri dishes containing MEM with 7% fetal calf serum in a CO2 (5%) incubator at 37° C.; Methyl sulfone was present at concentrations of 0, 3, 6, or 10%. After 20 hours, cells were incubated with antibodies specific to T-lymphocytes (CD3 and CD4 T-cells), B-lymphocytes (B-cells) and neutrophils, and the percent of apoptotic cells was determined by Flow Cytometry. This is a technique that identifies specific cell types (e.g., CD3 T-cells, CD4 T-cells, B-cells, neutrophils) within a mixed population of blood cells, and then determines whether the cells are alive or apoptotic.
After 20 hours, cells were incubated with fluorescent antibodies to identify T-cells, B-cells and neutrophils, and then processed by Flow Cytometry (FIG. 15).

## methyl sulfone
[1]; 6% methyl sulfone, 24 hours
  apoptosis of melanoma cells: induced into apoptosis
[1]; 24 hours, especially at less than 5%
  apoptosis of M3 cells compared with MES or EES: significantly less apoptosis
[1]; conclusion from FIGS. 16 and 17
  window of concentrations between killing cancer cells and harming normal cells: wide window
[1]; melanoma cells, FIG. 1 legend
  methyl sulfone concentration at which melanoma cells became apoptotic: over 2%
[2]
  colony formation on soft agar (anchorage-independent growth): no colony formation
[3]
  distribution of actin filaments: clearly visible at the cell surface in small protrusions that contacted neighboring cells
[4]; 4% methyl sulfone
  apoptotic leukemic lymphocytes: 74%
[4]; 6% methyl sulfone
  apoptotic leukemic lymphocytes: 88%
[4]; comparison with 10^−7 M vinblastine
  effectiveness against leukemic lymphocytes compared with vinblastine: more effective than vinblastine
[5]
  effect on neutrophils: unharmed
